We go through three compounds from patent US5608084A, “Lactones with antioxidising and hypolipidaemic activity useful in the therapy of the atherosclerosis” (priority 1994, dated 1997).

The test system of this experiment is LDL. Description: Antioxidant activity: latency period of copper-induced LDL oxidation (TBARS method). The experiment is classed as biochemical, human. The settings on record: for Latency period: LDL oxidized with 5 μM cupric sulfate at 37° C.; for concentration giving a comparable prolongation of the latency period, relative to probucol (times lower): compared with probucol; for antioxidant activity compared with probucol: latency period. From the text:
The determination of the melting point has been carried out by means of a capillary melting point apparatus Electrothermal, without any correction. The I.R. spectrum has been obtained by means of a Perkin-Elmer rood. 963/G spectrophotometer generally, when not otherwise specified, preparing the specimen in potassium bromide and recording the spectrum between […]. The ^1 H-NMR spectrum has been recorded at room temperature with a 200 MHz Varian Gemini spectrometer, in the solvents cited, by using tetramethylsilane as internal standard; the resonances of the signals have been expressed in p.p.m.. The ^13 C-NMR spectrum has been carried out at 50.3 MHz with a Varian Gemini 200 spectrometer by using tetramethylsilane as internal standard and as solvents those described in the experimental section. The mass spectrum has been recorded by using a VG 7070E mass spectrometer, at a 70 eV ionization voltage and with a 6 Kvolt acceleration voltage. The chromatographies on silica gel have been carried out by using 60 F254 silica gel ([…]--Merck) with the eluents cited in the examples, according to the method described by Clark Still W. et al. in J. Org. Chem., 43, 2923, (1978). The pharmacological activity of the lactones of formula I object of the present invention has been determined by means of a series of in vitro tests considered predictive of the antioxidant and hypolipidaemic properties. The antioxidant activity has been evaluated through the capability of some lactones of formula I to prevent and/or delay the oxidative modification of the lipoproteins (LDL), caused by a chemical method by incubating native LDL with cupric ions, according to the method described by Steinbrecher U. P. in J. Biol. Chem., 262, 3603-3608, (1987). The evaluation of the oxidation degree of the LDL through the monitoring of the concentration of aldehydes derived from the degradation of the lipidic peroxides and the observation of the modifications of the B-100 apolipoprotein represent the used experimental approach. The antioxidant activity of the lactones has been expressed in terms of duration of the latency period that represents a parameter of the resistance to the oxidation of the LDL. The LDL have been isolated from the human plasma obtained from blood collected, in the presence of EDTA, from healty volunteers fasting from 8 hours according to the method described by Havel H. in J. Clin. Invest., 34, 1345-1353, (1955). The solution, dialyzed in Visking-Serva dialysis tubes at 4° C. for 72 hours in phosphate buffer (PBS) added with EDTA (0.24 mM), has been filtered through a membrane with 0.45μ porosity (Millex HV Filters) and the proteic concentration has been determined according to the method described by Lowry O. et al. in J. Biol. Chem., 193, 265-275, (1951). The solution has been diluted with PBS-EDTA at a concentration of 500 μg protein/ml and the obtained LDL have been incubated at 42° C. for 45 minutes in presence of the lactones solubilized in ethanol (1.7 μl/ml LDL). At the end of the incubation the solutions have been placed on ice for 45 minutes and dialyzed at 4° C. for 36 hours in PBS. The oxidation of the LDL has been carried out with 5 μM cupric sulfate at 37° C. and stopped at the experimental times by cooling at 4° C. and adding 0.24 mM of EDTA. The solutions of LDL have been kept at 4° C. and sheltered from light during the experimental procedure. The oxidation degree of the LDL has been checked by spectrophotometric determination (λ=535 nm--Perkin Elmer spectrophotometer mod. Lambda 1) of the content of the aldehydes of degradation reactive to the thiobarbituric acid using as standard malondialdehyde (MDA), according to the TBARS method, described in Methods in Enzymology, vol. 52, (1978).
FIGS. 1A-1C show the results of spectrophotometric readings expressed as ng of MDA/mg LDL protein. […]

Some results are limits rather than exact numbers.

Regarding `Cc1c(C)c2c(c(C)c1O)CCC(C)OC(=O)C(C)(C)CCCO2` (centres unmarked) [Example 3, 6,6,9,13,15,16-Hexamethyl-14-hydroxy-2,8-dioxabicyclo[10.4.0]hexadec-12,14,16-trien-7-one], the “concentration giving a comparable prolongation of the latency period, relative to probucol (times lower)” value was 10 times and the “antioxidant activity compared with probucol” value is recorded as “far higher than that of probucol”. Also, where the note is “1 μM”, the Latency period came to 73 min. Further, under “5 μM”, the Latency period is 120 min. The Latency period (10 μM) was greater than 180 min.
`CCC1CCc2c(C)c(O)c(C)c(C)c2OCCCC(C)(C)C(=O)O1` (centres unmarked) [Example 6, 9-Ethyl-14-hydroxy-6,6,13,15,16-pentamethyl-2,8-dioxabicyclo[10.4.0]hexadec-12,14,16-trien-7-one]: the “concentration giving a comparable prolongation of the latency period, relative to probucol (times lower)” value worked out at 10 times and the “antioxidant activity compared with probucol” value is listed as “far higher than that of probucol”. This compound registered a Latency period (1 μM) of 95 min. Where the note is “5 μM”, this compound displayed a Latency period greater than 180 min. For the same compound, the Latency period (10 μM) was greater than 180 min.
For the setting “10 μM”, `CC(C)(Sc1cc(C(C)(C)C)c(O)c(C(C)(C)C)c1)Sc1cc(C(C)(C)C)c(O)c(C(C)(C)C)c1` [Probucol, reference compound] registered a Latency period of 82 min.
